Measured values as given in ChEMBL document CHEMBL1155899, “Cucurbitane-type triterpenoids from the stems of momordica charantia” (J Nat Prod, 2008).

Tested on: SK-HEP1
Test: Cytotoxicity against human SK-Hep1 cells by MTT assay
Assay type: functional, cell-based

Row | SMILES | IC50
1 | C[C@H](C/C=C/C(C)(C)O)[C@H]1CC[C@@]2(C)[C@@H]3C=CC4=C(CC[C@H](O)C4(C)C)[C@]3(C)CC[C@]12C | > 100 µM
2 | CO[C@H]1C=C2[C@@H](CC[C@H](O)C2(C)C)[C@]2(C)CC[C@]3(C)[C@@H]([C@H](C)C/C=C/C(C)(C)O)CC[C@@]3(C)[C@H]12 | > 100 µM
3 | CC(C)=CC(=O)C[C@@H](C)[C@H]1CC[C@@]2(C)[C@@H]3C(=O)C=C4[C@@H](CCC(=O)C4(C)C)[C@]3(C)CC[C@]12C | > 100 µM
4 | COc1cc([C@@H]2c3cc4c(cc3[C@@H](O[C@@H]3O[C@@H]5CO[C@@H](C)O[C@H]5[C@H](O)[C@H]3O)[C@H]3COC(=O)[C@H]23)OCO4)cc(OC)c1O [ETOPOSIDE] | 49.6 µM
5 | C[C@H](C/C=C/C(C)(C)O)[C@H]1CC[C@@]2(C)[C@@H]3[C@@H](O)C=C4[C@@H](CC[C@H](O)C4(C)C)[C@]3(C=O)CC[C@]12C | 98.3 µM
6 | COC(C)(C)/C=C/C[C@@H](C)[C@H]1CC[C@@]2(C)[C@@H]3[C@@H](O)C=C4[C@@H](CC[C@H](O)C4(C)C)[C@]3(C=O)CC[C@]12C | 91.6 µM
7 | CO[C@H]1C=C2[C@@H](CC[C@H](O)C2(C)C)[C@]2(C)CC[C@]3(C)[C@@H]([C@H](C)C/C=C/C(C)(C)OC)CC[C@@]3(C)[C@H]12 | > 100 µM
8 | CO[C@H]1C=C2[C@@H](CC[C@H](OC(C)=O)C2(C)C)[C@]2(C)CC[C@]3(C)[C@@H]([C@H](C)C/C=C/C(C)(C)O)CC[C@@]3(C)[C@H]12 | > 100 µM
9 | C[C@H](C/C=C/C(C)(C)O)[C@H]1CC[C@@]2(C)[C@@H]3[C@@H](O)C=C4[C@@H](CC[C@H](O)C4(C)C)[C@]3(C)CC[C@]12C | > 100 µM
